Read-outs that look alike come from different tables or passages of the source.
Legend:
SiHa cells [1] = assay: Metabolism and uptake of ester 4b in anoxic single cell suspensions; format: in vitro ADME; settings: anoxic SiHa suspensions after addition of 4b (150 μM)
Source text: If the anionic sidechain of the BTO acids results in low intracellular concentrations, with reductive metabolism occurring largely at the cell surface, the corresponding esters would be expected to provide improved delivery to the intracellular compartment (consistent with their higher cytotoxic potencies, as noted in Section 2.5). To test this, we compared the metabolism of ester 4b (Figure 7A) with its corresponding acid 4a (Figure 7B) by monitoring extracellular concentrations in anoxic SiHa suspensions. The rates of metabolism of both compounds were unaffected by pHe, consistent with the results for 4a in Figure 5B. The ester was metabolized more rapidly than the acid, with only a trace of acid 4a detected transiently as an extracellular metabolite (Figure 7A). The major metabolites were the less polar 1-oxide, 15a, and the 1-oxide of the ester, 16a. In separate experiments with higher initial concentrations of 4b, 15a was again the main extracellular metabolite (Figure 7C, left). […] Compound 4b itself was not detected in the intracellular samples, presumably reflecting a lack of retention in cells and the very low intracellular volume, which will compromise analytical sensitivity (only 2 × 10^6 cells were collected for each analysis in this experiment).
Figure 7 Metabolism of BTO ester 4b and the corresponding acid 4a by anoxic SiHa single cell suspensions (2 × 10^6 cells/mL). (A) Extracellular concentrations following the addition of 4b (50 μM). (B) Extracellular concentrations following the addition of 4a (50 μM). (C) Extracellular (left) and intracellular (right) concentrations following the addition of 4b (150 μM). Values are means and errors are SEM for 3 replicate cultures.

[2] = Solubility in AlphaMEM + 5% FBS, pH 7.4; settings: culture medium (AlphaMEM + 5% FBS), pH 7.4, plasma or biological fluid, thermodynamic from solid
[3] = One-electron reduction potentials by pulse radiolysis; format: physicochemical; settings: pH 7.0, equilibrium with redox indicator shown in square brackets
Description: One-electron reduction potentials (E^0′) were determined from the redox equilibria with methylviologen, MV^2+, (E^0′ = […], [34]), dimethyldiquat, V21^2+, (E^0′ = […], [35]), or triquat, TQ^2+, (E^0′ = −548 ± 7 mV [34]). […] Substituting the 3-alkanoic sidechain with the 3-aminoalkanoic sidechain on the BTO 1,4-dioxide lowers the E^0′, as does the addition of the cyclopentane ring. The combined effect is seen for 10a, where the E^0′ value is −565 mV, which is expected to be too low for significant bioreduction under hypoxia.
Time-resolved optical absorption and kinetic studies were carried out using the University of Auckland’s 4 MeV linear accelerator, which has been previously described. The one-electron reduction potentials of the compounds (A) and couple E^0′(A/A^−), versus normal hydrogen electrode, were determined at pH 7.0 (2.5 mM phosphate) by establishing redox equilibria within 50 μs between three mixtures of one-electron reduced A and the viologen reference compounds, MV^2+, TQ^2+ and V21^2+. The determined equilibrium constants were used to calculate the ΔE values using the Nernst equation, correcting for ionic strength effects, as described in the literature.

SiHa cells [4] = assay: IC50 assay (inhibition of proliferation, 4 h exposure, SRB); settings: SiHa; for IC50: Homo sapiens, 4 h
Description: Cells were seeded in 96-well plates (SiHa or FaDu 1500 cells/well, UT-SCC-74B 800 cells/well) in 100 μL. After incubation for 2 h, the drugs were added in 50 μL of the same titrated medium at 3× the final concentration to duplicate the wells. After a further 4 h the plates were checked for drug precipitation using a phase contrast microscope, then drugs were removed by aspirating and washing with the standard (pH 7.4) medium, then aspirating again and adding 150 μL of the medium. Cultures were then grown for 5 days before staining with sulphorhodamine B and measuring absorbance, with the estimation of IC50 values using 4-parameter logistic regression, as previously carried out.
The medium and plasticware was equilibrated in the chamber for 3 days prior to use. In the anoxia experiments, FaDu cells were plated in poly-L-lysine coated plates (Corning Cat # 356461) to improve attachment.
Cells were subsequently grown under standard cell culture conditions (oxia, pHe 7.4) for 5 days before staining with sulforhodamine B (SRB). […] (B) SN30000 (2). (C) BTO acid 4a. Values are means and errors are ranges for duplicate cultures in a single experiment. Fitted curves are 4-parameter logistic regressions. PCR = pH cytotoxicity ratio. ACR = anoxia cytotoxicity ratio. TMR = tumor microenvironment ratio.

FaDu cells = assay: as above; format: cell-based; settings: for IC50: Homo sapiens, 4 h
SiHa and FaDu cells = assay: IC50 assay, summary statements over both cell lines; format: cell-based; settings: SiHa and FaDu, anoxia, pHe 6.5; read-out: Potency (IC50) under anoxia at pHe 6.5
Description: Cells were seeded in 96-well plates (SiHa or FaDu 1500 cells/well, UT-SCC-74B 800 cells/well) in 100 μL. After incubation for 2 h, the drugs were added in 50 μL of the same titrated medium at 3× the final concentration to duplicate the wells. After a further 4 h the plates were checked for drug precipitation using a phase contrast microscope, then drugs were removed by aspirating and washing with the standard (pH 7.4) medium, then aspirating again and adding 150 μL of the medium. Cultures were then grown for 5 days before staining with sulphorhodamine B and measuring absorbance, with the estimation of IC50 values using 4-parameter logistic regression, as previously carried out [85].

[5] = cited from earlier work
[6] = read-out: Anoxic IC50, SiHa, pHe 6.5, 4 h, anoxic
[7] = read-out: Anoxic IC50, SiHa, pHe 7.4, 4 h, anoxic
[8] = read-out: Oxic IC50, SiHa, pHe 6.5, 4 h, oxic
[9] = read-out: Oxic IC50, SiHa, pHe 7.4, 4 h, oxic
[10] = pHe 6.5, 4 h, anoxic, read-out: Anoxic IC50
[11] = pHe 6.5, 4 h, oxic, read-out: Oxic IC50
[12] = pHe 7.4, 4 h, anoxic, read-out: Anoxic IC50
[13] = pHe 7.4, 4 h, oxic, read-out: Oxic IC50

| Compound | melting point | IC50 (SiHa cells [4]; [6]) [µM] | IC50 (SiHa cells [4]; [7]) [µM] | IC50 (SiHa cells [4]; [8]) [µM] | IC50 (SiHa cells [4]; [9]) [µM] | TMR (overall TME ratio = oxic IC50 pHe 7.4/anoxic IC50 pHe 6.5) (SiHa cells [4]) | PCR Anoxic (IC50 at pHe 7.4/IC50 at pHe 6.5) (SiHa cells [4]) | PCR oxic (IC50 at pHe 7.4/IC50 at pHe 6.5) (SiHa cells [4]) | TMR (oxic IC50 pHe 7.4/anoxic IC50 pHe 6.5) (FaDu cells) | IC50 (FaDu cells; [10]) [µM] | IC50 (FaDu cells; [11]) [µM] | IC50 (FaDu cells; [12]) [µM] | IC50 (FaDu cells; [13]) [µM] | PCR Anoxic (IC50 at pHe 7.4/IC50 at pHe 6.5) (FaDu cells; anoxic) | PCR oxic (IC50 at pHe 7.4/IC50 at pHe 6.5) (FaDu cells; oxic) | ACR (oxic IC50/anoxic IC50) (FaDu cells; pHe 6.5) | ACR (oxic IC50/anoxic IC50) (FaDu cells; pHe 7.4) | further results |
| --- | --- | --- | --- | --- | --- | --- | --- | --- | --- | --- | --- | --- | --- | --- | --- | --- | --- | --- |
| O=C(O)CCc1nc2ccccc2[n+]([O-])n1 [Compound 15a, 3-(2-Carboxyethyl)benzo[e][1,2,4]triazine 1-Oxide] | 152 to 154 °C (dec.) |  |  |  |  |  |  |  |  |  |  |  |  |  |  |  |  | Intracellular concentration, fold lower than that of acid 4a (SiHa cells [1]): approximately 10 fold |
| COC(=O)CCc1n[n+]([O-])c2ccccc2[n+]1[O-] [Compound 4b, 3-(3-Methoxy-3-oxopropyl)benzo[e][1,2,4]triazine 1,4-Dioxide] | 89 to 91 °C | 1.8 ± 0.46 | 1.4 ± 0.1 | 26.3 ± 7.1 | 34.4 ± 3.5 | 19.1 ± 5.3 | 0.78 ± 0.21 | 1.31 ± 0.38 | 42.3 ± 2.6 | 3.3 ± 0.11 | 98 ± 12 | 3.2 ± 0.38 | 140 ± 7 | 0.97 ± 0.12 | 1.43 ± 0.19 | 29.6 ± 3.8 | 43.6 ± 5.7 | solubility [2]: 17.7 mM; Detection in intracellular samples (SiHa cells [1]): not detected; E^0′ one-electron reduction potential [3]: −363 ± 7 [MV^2+] mV; ACR (anoxic cytotoxicity ratio = oxic IC50/anoxic IC50) (SiHa cells [4]; pHe 6.5): 14.5 ± 5.4; ACR (anoxic cytotoxicity ratio = oxic IC50/anoxic IC50) (SiHa cells [4]; pHe 7.4): 24.6 ± 3.1 |
| Nc1n[n+]([O-])c2ccccc2[n+]1[O-] [Compound 3, tirapazamine, reference compound] |  | 2.9 ± 0.38 | 2.81 ± 0.3 | 91 ± 21 | 162 ± 8 | 56 ± 8 | 0.97 ± 0.16 | 1.77 ± 0.42 | 26.2 ± 5.9 | 6.96 ± 1.38 | 127 ± 14 | 5.9 ± 0.48 | 182 ± 20 | 0.85 ± 0.18 | 1.43 ± 0.22 | 18.3 ± 4.1 | 30.9 ± 4.2 | IC50 (SiHa and FaDu cells): 2.9 to 8.6 µM; E^0′ one-electron reduction potential ([5]; pulse radiolysis, redox indicator MV^2+): −456 ± 8 [MV^2+] ^h mV |
| c1cc[n+]2c(c1)-c1cccc[n+]1CCC2 [triquat, 7,8-dihydrodipyrido-[1,2-a:2′,1′-c][1,4]diazepinedium] |  |  |  |  |  |  |  |  |  |  |  |  |  |  |  |  |  | E^0′ of redox indicator ([5]; reference viologen): −548 ± 7 mV |

From paper PMC6680510, “Benzotriazine Di-Oxide Prodrugs for Exploiting Hypoxia and Low Extracellular pH in Tumors” (Molecules, 2019)
